According to US20200171066A1, “EYE DROP FOR TREATING DRY EYE” (Xiamen University, priority 2017, published 2020):

Tests used:
[1] = test system: conjunctival CD4+T cell infiltration; experiment: Conjunctival CD4+T cell staining in dry eye mouse model; assay type: in vivo, C57BL/6 mice; conditions: 0.1% eye drop, compared with the dry eye group
Protocol: (§1) 1. Establish a dry eye mouse model: Female C57BL/6 mice of 10-12 weeks old were injected subcutaneously with scopolamine 0.5 mg/0.2 mL four times a day and kept in a dry environment for 5 days (RH: 30±3; T: 23-25° C.); normal control group was maintained in normal environment (RH: 60%-80%; T: 23-25° C.).
(§2) Preparation of mizoribine eye drop: dry eye treatment group used 0.1% of mizoribine eye drop prepared by the method of Embodiment 1.
(§3) Eye drop method: Eye drop treatment was performed using the above-mentioned eye drops 4 times a day on both eyes.
3. Conjunctival CD4+T cell staining: fixing frozen sections by acetone at −20° C. for 10 minutes, disrupting with 0.2% of Triton-X PBS for 10 minutes, and using 0.3% of H2O2 to eliminate endogenous peroxidase, blocking with 20% of normal goat serum for 45 minutes. The primary anti-CD4 was incubated for 1 hour at room temperature. After extensive washing (digestion), the biotinylated (second) antibody was incubated for 30 minutes. Finally, a Vectastain Elite ABC kit was used to develop color and stain the nucleus.

[2] = test system: conjunctival goblet cells; experiment: PAS staining of conjunctival goblet cells in dry eye mouse model; assay type: in vivo, C57BL/6 mice; conditions: 0.1% eye drop, compared with the dry eye group
Protocol: as §1, §2, §3
2. PAS staining of conjunctival goblet cells: Paraffin specimens of the whole eyeballs (conjunctival sac) of the mice were cut into 5 um sections and stained with periodic acid-Schiff (PAS) reagent to observe the morphology and number of conjunctival goblet cells.

[3] = test system: corneal epithelial barrier of mice suffering dry eye; experiment: Corneal OGD fluorescent staining in dry eye mouse model; assay type: in vivo, C57BL/6 mice; conditions: 0.1% eye drop, 4 times a day on both eyes
Protocol: as §1, §2, §3
1. Corneal OGD fluorescent staining: mice were sacrificed, and 0.5 μl of Oregongreen-dextran (OGD) was dropped into the conjunctival sac of mice with a pipette, manual blinking was performed, and the conjunctival sac was washed with 1 mL of normal saline 1 minute later. The corneal epithelial fluorescence staining was observed and shot under a living fluorescence microscope.

IFN-γ = experiment: Real-Time PCR of conjunctival RNA in dry eye mouse model; assay type: in vivo, C57BL/6 mice; conditions: 0.1% eye drop, compared with the dry eye group
Protocol: as §1, §2, §3
(§4) Prepare the PCR reaction solution according to the following components:
(§5) Three-step PCR amplification standard procedure:
(§6) Stage 1: Pre-denaturation cycle number: 195° C., 30 sec.
(§7) Stage 2: number of PCR reaction cycles: 4095° C. for 5 sec. and 60° C. for 34 sec.
(§8) Stage 3: Dissolving curve
(§9) The relative expression level of the gene was analyzed by the relative Ct method, and the specific expression of the target gene was calculated by the following formula, that is to say, the relative expression level=2^−ΔΔCt; wherein −ΔΔCt=−(ΔCt, q−ΔCt, cb), ΔCt, q=Ct,x−Ct, r ΔCt, cb=Ct, cb−Ct, r, where r=reference gene, Cb=calibration value, X=target gene, and cycle threshold (C) is determined through primary signal (fluorescence).

TNF-α = experiment: as above; assay type: in vivo, C57BL/6 mice; conditions: 0.1% eye drop, compared with the dry eye group
Protocol: as §1, §2, §3, §4, §5, §6, §7, §8, §9

IL-1β = experiment: as above; assay type: in vivo, C57BL/6 mice; conditions: 0.1% eye drop, compared with the dry eye group
Protocol: as §1, §2, §3, §4, §5, §6, §7, §8, §9

IL-13 = experiment: as above; assay type: in vivo, C57BL/6 mice; conditions: 0.1% eye drop, compared with the dry eye group
Protocol: as §1, §2, §3, §4, §5, §6, §7, §8, §9

NF-κB signaling pathway = conditions: 0.025% applied topically to the eye, mice; cited from earlier work
[4] = test system: Patients with Sjogren's syndrome; conditions: 0.03%; cited from earlier work
[5] = cited from earlier work
dry eye dogs = conditions: 0.02% drops applied topically in the eye; cited from earlier work

Row | Structure (SMILES) | proportion of brown-yellow cells (conjunctival CD4+T cells) [1] | number of conjunctival goblet cells (PAS) [2] | corneal flaky staining (OGD) [3] | number of corneal punctiform staining (OGD) ([3]; compared with the dry eye group) | expression of conjunctival IFN-γ (IFN-γ) | expression of conjunctival TNF-α (TNF-α) | expression of conjunctival IL-1β (IL-1β) | expression of conjunctival IL-13 (IL-13) | activation of NF-κB signaling pathway (NF-κB signaling pathway) | ocular surface signs of dry eye (NF-κB signaling pathway) | tear film stability [4] | solubility in water [5] | amount of tear secretion (dry eye dogs)
1 | NC(=O)c1ncn([C@@H]2O[C@H](CO)[C@@H](O)[C@H]2O)c1O [mizoribine] | significantly reduced | significant increase | no flaky staining was observed | significantly reduced | significantly decreased | significantly decreased | significantly decreased | significantly decreased | – | – | – | – | –
2 | C=CC[C@@H]1/C=C(\C)C[C@H](C)C[C@H](OC)[C@H]2O[C@@](O)(C(=O)C(=O)N3CCCC[C@H]3C(=O)O[C@H](/C(C)=C/[C@@H]3CC[C@@H](O)[C@H](OC)C3)[C@H](C)[C@@H](O)CC1=O)[C@H](C)C[C@@H]2OC [FK506, tacrolimus] | – | – | – | – | – | – | – | – | inhibit the activation of NF-κB signaling pathway | reduce the ocular surface signs of dry eye | improve tear film stability | hardly soluble in water | significantly increase
